Test results from the supplement of paper PMC10307832.

Assays:
Experiment in all cases: relative viability (nuclei count vs DMSO), 5 days (fraction); higher = more cells survive
RERF-LC-KJ = system: RERF-LC-KJ
Summary of the method: (§1)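 Values are medians from duplicate plates. Each reflects relative viability, defined as the nuclei count of treated wells over that of vehicle wells. Lung cancer cell lines in 1536-well plates were pin-tool dosed one day after seeding with one drug alone or with a fixed anchor-drug dose plus five library-drug doses (not always all listed) in √10 steps, then fixed, stained and imaged at 4× after 5 days.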

NCI-H460 = system: NCI-H460
Summary of the method: as §1

NCI-H647 = system: NCI-H647
Summary of the method: as §1

NCI-H2228 = system: NCI-H2228
Summary of the method: as §1

NCI-H1734 = system: NCI-H1734
Summary of the method: as §1

HOP-62 = system: HOP-62
Summary of the method: as §1

A-427 = system: A-427
Summary of the method: as §1

LC-2-ad = system: LC-2-ad
Summary of the method: as §1

NCI-H2347 = system: NCI-H2347
Summary of the method: as §1

SW 1573 = system: SW 1573
Summary of the method: as §1

NCI-H2126 = system: NCI-H2126
Summary of the method: as §1

HCC-78 = system: HCC-78
Summary of the method: as §1

NCI-H1975 = system: NCI-H1975
Summary of the method: as §1

NCI-H1792 = system: NCI-H1792
Summary of the method: as §1

SK-LU-1 = system: SK-LU-1
Summary of the method: as §1

LXF-289 = system: LXF-289
Summary of the method: as §1

HCC-15 = system: HCC-15
Summary of the method: as §1

NCI-H1755 = system: NCI-H1755
Summary of the method: as §1

NCI-H1915 = system: NCI-H1915
Summary of the method: as §1

PC-3 [JPC-3] = system: PC-3 [JPC-3]
Summary of the method: as §1

LOU-NH91 = system: LOU-NH91
Summary of the method: as §1

NCI-H358 = system: NCI-H358
Summary of the method: as §1

CC1(C)CCC(c2ccc(Cl)cc2)=C(CN2CCN(c3ccc(C(=O)NS(=O)(=O)c4ccc(N[C@H](CCN5CCOCC5)CSc5ccccc5)c(S(=O)(=O)C(F)(F)F)c4)cc3)CC2)C1 [Navitoclax] + C[C@]1(O)C[C@@H](c2nc(-c3ccc4ccc(-c5ccccc5)nc4c3)c3c(N)nccn32)C1 [Linsitinib] (partner 1 µM)
relative viability (RERF-LC-KJ; first compound 0.005 µM): 0.905 | relative viability (RERF-LC-KJ; first compound 0.01581 µM): 0.859 | relative viability (RERF-LC-KJ; first compound 0.05 µM): 0.927 | relative viability (RERF-LC-KJ; first compound 0.1581 µM): 0.915 | relative viability (RERF-LC-KJ; first compound 0.5 µM): 0.904 | relative viability (NCI-H460; first compound 0.005 µM): 0.77 | relative viability (NCI-H460; first compound 0.01581 µM): 0.825 | relative viability (NCI-H460; first compound 0.05 µM): 0.919 | relative viability (NCI-H460; first compound 0.1581 µM): 0.896 | relative viability (NCI-H460; first compound 0.5 µM): 0.744 | relative viability (NCI-H647; first compound 0.005 µM): 1.05 | relative viability (NCI-H647; first compound 0.01581 µM): 1.12 | relative viability (NCI-H647; first compound 0.05 µM): 1.23 | relative viability (NCI-H647; first compound 0.1581 µM): 1.17 | relative viability (NCI-H647; first compound 0.5 µM): 1.05 | relative viability (NCI-H2228; first compound 0.005 µM): 0.877 | relative viability (NCI-H2228; first compound 0.01581 µM): 0.81 | relative viability (NCI-H2228; first compound 0.05 µM): 0.623 | relative viability (NCI-H2228; first compound 0.1581 µM): 0.626 | relative viability (NCI-H2228; first compound 0.5 µM): 0.639 | relative viability (NCI-H1734; first compound 0.005 µM): 0.834 | relative viability (NCI-H1734; first compound 0.01581 µM): 0.948 | relative viability (NCI-H1734; first compound 0.1581 µM): 0.797 | relative viability (NCI-H1734; first compound 0.5 µM): 0.857 | relative viability (HOP-62; first compound 0.005 µM): 0.976 | relative viability (HOP-62; first compound 0.01581 µM): 0.871 | relative viability (HOP-62; first compound 0.05 µM): 0.955 | relative viability (HOP-62; first compound 0.1581 µM): 0.767 | relative viability (HOP-62; first compound 0.5 µM): 0.923 | relative viability (A-427; first compound 0.005 µM): 1.13 | relative viability (A-427; first compound 0.01581 µM): 1.11 | relative viability (A-427; first compound 0.05 µM): 0.911 | relative viability (A-427; first compound 0.1581 µM): 1.12 | relative viability (A-427; first compound 0.5 µM): 1.15 | relative viability (LC-2-ad; first compound 0.005 µM): 0.853 | relative viability (LC-2-ad; first compound 0.01581 µM): 0.904 | relative viability (LC-2-ad; first compound 0.05 µM): 0.787 | relative viability (LC-2-ad; first compound 0.1581 µM): 0.789 | relative viability (LC-2-ad; first compound 0.5 µM): 0.796 | relative viability (NCI-H2347; first compound 0.005 µM): 0.94 | relative viability (NCI-H2347; first compound 0.01581 µM): 1.03 | relative viability (NCI-H2347; first compound 0.05 µM): 0.876 | relative viability (NCI-H2347; first compound 0.1581 µM): 0.954 | relative viability (NCI-H2347; first compound 0.5 µM): 0.973 | relative viability (SW 1573; first compound 0.005 µM): 0.856 | relative viability (SW 1573; first compound 0.01581 µM): 0.841 | relative viability (SW 1573; first compound 0.05 µM): 0.747 | relative viability (SW 1573; first compound 0.1581 µM): 0.798 | relative viability (SW 1573; first compound 0.5 µM): 0.898 | relative viability (NCI-H2126; first compound 0.005 µM): 0.708 | relative viability (NCI-H2126; first compound 0.01581 µM): 0.748 | relative viability (NCI-H2126; first compound 0.05 µM): 0.786 | relative viability (NCI-H2126; first compound 0.1581 µM): 0.661 | relative viability (NCI-H2126; first compound 0.5 µM): 0.725 | relative viability (HCC-78; first compound 0.005 µM): 0.468 | relative viability (HCC-78; first compound 0.01581 µM): 0.604 | relative viability (HCC-78; first compound 0.1581 µM): 0.523 | relative viability (HCC-78; first compound 0.5 µM): 0.576 | relative viability (NCI-H1975; first compound 0.005 µM): 1.01 | relative viability (NCI-H1975; first compound 0.01581 µM): 1.14 | relative viability (NCI-H1975; first compound 0.05 µM): 1.07 | relative viability (NCI-H1975; first compound 0.1581 µM): 0.869 | relative viability (NCI-H1975; first compound 0.5 µM): 1 | relative viability (NCI-H1792; first compound 0.005 µM): 0.554 | relative viability (NCI-H1792; first compound 0.01581 µM): 0.629 | relative viability (NCI-H1792; first compound 0.05 µM): 0.414 | relative viability (NCI-H1792; first compound 0.1581 µM): 0.539 | relative viability (NCI-H1792; first compound 0.5 µM): 0.609 | relative viability (SK-LU-1; first compound 0.005 µM): 1.07 | relative viability (SK-LU-1; first compound 0.01581 µM): 1.25 | relative viability (SK-LU-1; first compound 0.05 µM): 1.2 | relative viability (SK-LU-1; first compound 0.1581 µM): 1.08 | relative viability (SK-LU-1; first compound 0.5 µM): 0.773 | relative viability (LXF-289; first compound 0.005 µM): 0.971 | relative viability (LXF-289; first compound 0.01581 µM): 0.974 | relative viability (LXF-289; first compound 0.05 µM): 0.84 | relative viability (LXF-289; first compound 0.1581 µM): 0.978 | relative viability (LXF-289; first compound 0.5 µM): 0.966 | relative viability (HCC-15; first compound 0.005 µM): 0.819 | relative viability (HCC-15; first compound 0.01581 µM): 0.97 | relative viability (HCC-15; first compound 0.05 µM): 0.783 | relative viability (HCC-15; first compound 0.1581 µM): 0.842 | relative viability (HCC-15; first compound 0.5 µM): 0.843 | relative viability (NCI-H1755; first compound 0.005 µM): 0.969 | relative viability (NCI-H1755; first compound 0.01581 µM): 0.993 | relative viability (NCI-H1755; first compound 0.05 µM): 0.954 | relative viability (NCI-H1755; first compound 0.1581 µM): 0.968 | relative viability (NCI-H1755; first compound 0.5 µM): 1.02 | relative viability (NCI-H1915; first compound 0.005 µM): 1.1 | relative viability (NCI-H1915; first compound 0.01581 µM): 1.12 | relative viability (NCI-H1915; first compound 0.05 µM): 1.07 | relative viability (NCI-H1915; first compound 0.1581 µM): 1.05 | relative viability (NCI-H1915; first compound 0.5 µM): 1.06 | relative viability (PC-3 [JPC-3]; first compound 0.005 µM): 0.964 | relative viability (PC-3 [JPC-3]; first compound 0.01581 µM): 0.996 | relative viability (PC-3 [JPC-3]; first compound 0.05 µM): 0.996 | relative viability (PC-3 [JPC-3]; first compound 0.1581 µM): 0.983 | relative viability (PC-3 [JPC-3]; first compound 0.5 µM): 0.969 | relative viability (LOU-NH91; first compound 0.005 µM): 0.974 | relative viability (LOU-NH91; first compound 0.01581 µM): 0.999 | relative viability (LOU-NH91; first compound 0.05 µM): 0.933 | relative viability (LOU-NH91; first compound 0.1581 µM): 1.02 | relative viability (LOU-NH91; first compound 0.5 µM): 0.842 | relative viability (NCI-H358; first compound 0.005 µM): 0.763 | relative viability (NCI-H358; first compound 0.01581 µM): 0.956 | relative viability (NCI-H358; first compound 0.05 µM): 0.813 | relative viability (NCI-H358; first compound 0.1581 µM): 0.898 | relative viability (NCI-H358; first compound 0.5 µM): 0.822
